From PubChem BioAssay AID2060897 (Molecular Pharmacology Branch, DTP, NCI, 2025)
Each block holds one compound with its values, some of them ahead of it.

System: 966289-007-R4-J1-PDC complex spheroid viability
Assay: Anticancer human tumor 966289-007-R4-J1-PDC patient-derived pancreatic adenocarcinoma cell line growth inhibition [RAS]
Conditions: for IC50: curve of first compound; for viability, T/C: stronger effect = lower value
Text: RAS pathway inhibitors in Combinations in Complex Spheroids
A high-throughput screen of multi-cell type tumor spheroids was designed to identify active combinations of RAS pathway inhibitors and targeted small molecules. Complex spheroids include a stromal component modeled by human endothelial cells (HUVEC) and fibroblasts modeled by human mesenchymal stem cells (MSCs). The concentration ranges selected for each drug and investigational agent were based upon clinically achievable concentrations if the clinical Cmax of the agent was known.
Compounds. The drugs and investigational agents: abemaciclib (NSC768073), cobimetinib (NSC768068), divarasib (GDC6063, NSC841802), docetaxel (NSC628503), GDC-1971 (RLY-1971, NSC841576), gemcitabine (NSC613327), inavolisib (NSC800729), ipatasertib (NSC767898), KB-0742 (NSC834161), MRTX-1133 (NSC836407), osimertinib (NSC779217), RMC-4630 (NSC839698), RMC-6236 (NSC851965), RMC-6291 (NSC852671), Ro-3306 (NSC812927), sapanisertib (NSC764658), SN-38 (NSC673596), staurosporine (NSC755774), SY5609 (NSC837396), and tovorafenib (DAY101, NSC766906), were obtained from the National Cancer Institute (NCI) Developmental Therapeutics Program Chemical Repository. The FDA-approved anticancer drug set is available from the NCI Developmental Therapeutics Program. […] The stock solutions were prepared in dimethyl sulfoxide (DMSO, Sigma-Aldrich, St. Louis, MO, cat. D2650) at 800-fold the tested concentration and stored at -70 degrees C prior to their use. All drugs and investigational agents were tested over a range starting from a high concentration at or near the clinical Cmax and decreasing in half-log increments. If the clinical Cmax for an agent had not been determined, the highest concentration tested was 10 microM.
Cell Culture. All cells were maintained in an incubator at 37 degrees C and 5% CO2 with 95% humidity. The PDC lines were cultured according to standard operating procedures established by the NCI PDMR. All PDCs were thawed and cultured in Matrigel-coated flasks prepared with a working solution of 1X Ham's F-12 nutrient mix, without supplementation (Invitrogen, Waltham, MA, cat. 11765054), 100 U/mL penicillin-streptomycin (Invitrogen, cat. 15140122), and 2.5% Matrigel (Corning Inc., Corning, NY, cat. 354248) for the first three passages. The 362531-283-R-J2-PDC and 782815-120-R-J1-PDC lines were cultured in 6C/Colon 1B media, which includes advanced DMEM/F-12 (Thermo Fisher Scientific, cat. 12634028), 10 mM HEPES (Thermo Fisher Scientific, cat. 15630080), 1X GlutaMAX supplement (Thermo Fisher Scientific, cat. 35050061), 0.1 mg/mL primocin (InvivoGen, San Diego, CA, cat. ant-pm-2), 10% defined fetal bovine serum, heat inactivated (HyClone Laboratories Inc., Logan, UT, cat. SH30070.03HI), 50% L-WRN conditioned media (ATCC, cat. CRL-3276), 1.25 mM N-Acetyl-L-cysteine (Sigma-Aldrich, cat. A9165), 10 mM nicotinamide (Sigma-Aldrich, cat. N0636), 1X B-27 supplement (Thermo Fisher Scientific, cat. 17504044), 1X N-2 supplement (Thermo Fisher Scientific, cat. 17502048), 50 ng/mL human EGF (Thermo Fisher Scientific, cat. PHG0311), and 10 microM Y-27632 dihydrochloride (Tocris Bioscience, cat. 1254). The K12877-001-R-J1-PDC line was cultured in 6I media, which includes all 6C/Colon 1B media plus 10 ng/mL human FGF-10 (PeproTech, cat. 100-26), 1 ng/mL human FGF-2 (PeproTech, cat. 100-18B), 1 µM prostaglandin E2 (Tocris Bioscience, cat. 2296), […] hydrocortisone (Sigma-Aldrich, cat. H4001), and […] bovine insulin (Sigma-Aldrich, cat. I6634). The K86415-001-R-J1-PDC line was cultured in 6D media, which includes all 6C/Colon 1B media components minus the L-WRN conditioned media. The 485176-168-R4-J1-PDC was cultured in PANC media, which includes all 6C/Colon 1B media plus 100 ng/mL human FGF-10 (PeproTech, cat. 100-26), 500 nM SB-431542 (Selleckchem, cat. S1067), and 10 nM gastrin (Tocris Bioscience, cat. 3006). […]

[1] = second compound 0.0316 µM, first compound 0.0316 µM
[2] = second compound 0.0316 µM, first compound 0.1 µM
[3] = second compound 0.0316 µM, first compound 0.316 µM
[4] = second compound 0.0316 µM, first compound 1 µM
[5] = second compound 0.1 µM, first compound 0.0316 µM
[6] = second compound 0.1 µM, first compound 0.1 µM
[7] = second compound 0.1 µM, first compound 0.316 µM
[8] = second compound 0.1 µM, first compound 1 µM
[9] = second compound 0.316 µM, first compound 0.0316 µM
[10] = second compound 0.316 µM, first compound 0.1 µM
[11] = second compound 0.316 µM, first compound 0.316 µM
[12] = second compound 0.316 µM, first compound 1 µM
[13] = second compound 1 µM, first compound 0.0316 µM
[14] = second compound 1 µM, first compound 0.1 µM
[15] = second compound 1 µM, first compound 0.316 µM
[16] = second compound 1 µM, first compound 1 µM
[17] = second compound 3.16 µM, first compound 0.0316 µM
[18] = second compound 3.16 µM, first compound 0.1 µM
[19] = second compound 3.16 µM, first compound 0.316 µM
[20] = second compound 3.16 µM, first compound 1 µM
[21] = second compound 10 µM, first compound 0.0316 µM
[22] = second compound 10 µM, first compound 0.1 µM
[23] = second compound 10 µM, first compound 0.316 µM
[24] = second compound 10 µM, first compound 1 µM
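Also: spheroids exposed to agents for one week before readout.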
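For viability, T/C in this document: percent viability relative to DMSO vehicle control wells as 100%.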

IC50 (second compound 0.0316 µM): < 31.6 nM | IC50 (second compound 0.1 µM): < 31.6 nM | IC50 (second compound 0.316 µM): < 31.6 nM | IC50 (second compound 1 µM): < 31.6 nM | IC50 (second compound 3.16 µM): < 31.6 nM | IC50 (second compound 10 µM): < 31.6 nM
Structure (SMILES): CC(=O)OC12COC1CC(O)C1(C)C(=O)C(O)C3=C(C)C(OC(=O)C(O)C(NC(=O)OC(C)(C)C)c4ccccc4)CC(O)(C(OC(=O)c4ccccc4)C21)C3(C)C (centres undefined) + C#Cc1c(F)ccc2cc(O)cc(-c3ncc4c(N5CC6CCC(C5)N6)nc(OCC56CCCN5CC(F)C6)nc4c3F)c12
viability, T/C [1]: 9.75% | viability, T/C [2]: 17.9% | viability, T/C [3]: 20.4% | viability, T/C [4]: 25.6% | viability, T/C (second compound 0.0316 µM, first compound 3.16 µM): 50.5% | viability, T/C (second compound 0.0316 µM, first compound 10 µM): 69.9% | viability, T/C [5]: 10.9% | viability, T/C [6]: 17.9% | viability, T/C [7]: 19.7% | viability, T/C [8]: 24.3% | viability, T/C (second compound 0.1 µM, first compound 3.16 µM): 36.3% | viability, T/C (second compound 0.1 µM, first compound 10 µM): 70.3% | viability, T/C [9]: 10.4% | viability, T/C [10]: 19.1% | viability, T/C [11]: 19.3% | viability, T/C [12]: 26% | viability, T/C (second compound 0.316 µM, first compound 3.16 µM): 49.9% | viability, T/C (second compound 0.316 µM, first compound 10 µM): 68.4% | viability, T/C [13]: 9.72% | viability, T/C [14]: 18.3% | viability, T/C [15]: 21.2% | viability, T/C [16]: 31.8% | viability, T/C (second compound 1 µM, first compound 3.16 µM): 44.9% | viability, T/C (second compound 1 µM, first compound 10 µM): 71.8% | viability, T/C [17]: 10.6% | viability, T/C [18]: 20.9% | viability, T/C [19]: 25% | viability, T/C [20]: 31.7% | viability, T/C (second compound 3.16 µM, first compound 3.16 µM): 44.6% | viability, T/C (second compound 3.16 µM, first compound 10 µM): 83.2% | viability, T/C [21]: 10.5% | viability, T/C [22]: 16.6% | viability, T/C [23]: 17.8% | viability, T/C [24]: 27.1% | viability, T/C (second compound 10 µM, first compound 3.16 µM): 42.6% | viability, T/C (second compound 10 µM, first compound 10 µM): 53.9%

IC50 (second compound 0.0316 µM): 7.64 nM | IC50 (second compound 0.1 µM): 11.9 nM | IC50 (second compound 0.316 µM): 8.38 nM | IC50 (second compound 1 µM): 8.9 nM | IC50 (second compound 3.16 µM): 8.38 nM | IC50 (second compound 10 µM): 7.88 nM
Structure (SMILES): Nc1ccn(C2OC(CO)C(O)C2(F)F)c(=O)n1 (centres undefined) + C#Cc1c(F)ccc2cc(O)cc(-c3ncc4c(N5CC6CCC(C5)N6)nc(OCC56CCCN5CC(F)C6)nc4c3F)c12
viability, T/C (second compound 0.0316 µM, first compound 0.00316 µM): 108% | viability, T/C (second compound 0.0316 µM, first compound 0.01 µM): 32.5% | viability, T/C [1]: 2.19% | viability, T/C [2]: 1.41% | viability, T/C [3]: 1.38% | viability, T/C [4]: 1.56% | viability, T/C (second compound 0.1 µM, first compound 0.00316 µM): 99.4% | viability, T/C (second compound 0.1 µM, first compound 0.01 µM): 58.5% | viability, T/C [5]: 1.48% | viability, T/C [6]: 1.34% | viability, T/C [7]: 1.6% | viability, T/C [8]: 1.65% | viability, T/C (second compound 0.316 µM, first compound 0.00316 µM): 91.6% | viability, T/C (second compound 0.316 µM, first compound 0.01 µM): 42.4% | viability, T/C [9]: 1.95% | viability, T/C [10]: 1.65% | viability, T/C [11]: 1.22% | viability, T/C [12]: 1.73% | viability, T/C (second compound 1 µM, first compound 0.00316 µM): 101% | viability, T/C (second compound 1 µM, first compound 0.01 µM): 44.2% | viability, T/C [13]: 2.02% | viability, T/C [14]: 1.61% | viability, T/C [15]: 1.68% | viability, T/C [16]: 1.67% | viability, T/C (second compound 3.16 µM, first compound 0.00316 µM): 97.4% | viability, T/C (second compound 3.16 µM, first compound 0.01 µM): 41.4% | viability, T/C [17]: 2.43% | viability, T/C [18]: 2.49% | viability, T/C [19]: 2.42% | viability, T/C [20]: 2.25% | viability, T/C (second compound 10 µM, first compound 0.00316 µM): 99.1% | viability, T/C (second compound 10 µM, first compound 0.01 µM): 37.1% | viability, T/C [21]: 1.37% | viability, T/C [22]: 1.51% | viability, T/C [23]: 1.83% | viability, T/C [24]: 1.37%
